{"source": "paper PMC6468809", "about": "“Structural Analysis of the 42 kDa Parvulin of Trypanosoma brucei” (Biomolecules, 2019)", "key": {"TbPar42-PPIase": {"test_system": "TbPar42-PPIase", "experiment": "EXSY experiment, cis/trans isomerisation of peptide", "type": "biochemical, Trypanosoma brucei", "details": "2.4 mM peptide, 50 μM TbPar42-PPIase, 25 mM potassium phosphate pH 6.26, 100% D2O, 27 °C, mixing time 400 ms"}, "hPin1": {"test_system": "hPin1", "experiment": "EXSY experiment, cis/trans isomerisation of peptide", "type": "biochemical, human", "details": "2.4 mM peptide, 50 μM hPin-PPIase, 25 mM potassium phosphate pH 6.26, 100% D2O, 27 °C, mixing time 400 ms"}, "TbPar42-PPIase (264-383)": {"molecular_target": "TbPar42-PPIase (264-383) (Trypanosoma brucei brucei, UniProt Q57XM6)", "sequence (Q57XM6 264-383)": "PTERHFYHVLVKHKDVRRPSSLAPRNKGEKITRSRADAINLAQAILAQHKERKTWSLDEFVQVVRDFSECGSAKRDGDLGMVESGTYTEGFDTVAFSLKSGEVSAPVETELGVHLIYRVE", "experiment": "biochemical"}, "TbPar42 NterFHA (1-177)": {"molecular_target": "TbPar42 NterFHA (1-177) (Trypanosoma brucei brucei, UniProt Q57XM6)", "sequence (Q57XM6 1-177)": "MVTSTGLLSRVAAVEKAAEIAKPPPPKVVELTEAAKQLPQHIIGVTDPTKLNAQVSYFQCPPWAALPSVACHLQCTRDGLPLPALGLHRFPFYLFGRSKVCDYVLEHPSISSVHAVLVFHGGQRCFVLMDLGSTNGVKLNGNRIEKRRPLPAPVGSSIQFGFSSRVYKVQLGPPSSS", "experiment": "biochemical", "description": "After each step a ^1H-^15N-HSQC or SOFAST spectrum was recorded on a 700 MHz Ultrashield NMR spectrometer at 27 °C. The spectra were analyzed with the CcpNmr Analysis software, and the chemical shift perturbations were calculated with following equation [22]: Δδtotal=(ΔδH)^2+(0.154·ΔδN)²\nResidues with chemical shifts ≥0.015 ppm (PPIase) or ≥0.04 ppm (NterFHA) were represented on the related protein structure using PyMOL [23]. For titrations of the peptide Ala-Glu-Ala-pThr-Glu-Ala-Xaa (Xaa representing Asp, Ile, Val, Ser, or Gln) to the NterFHA domain, the protein concentration was 250 µM and the peptides were titrated to a final concentration of 8 mM."}}, "note": "*1 amine or outer side, *2 acyl side, *3 side chain or, on linkers, in order; H or OH if unused. Where a SMILES comes first, the peptide text is derived from it. [ ]: non-standard residue; d: D form. pT = C[C@@H](OP(=O)(O)O)[C@H](N)C(=O)O; Suc = O=C(CCC(=O)[*:2])[*:1]", "data": [{"compound": "C[C@H](NC(=O)[C@@H]1CCCN1C(=O)[C@@H](NC(=O)[C@H](C)NC(=O)CCC(=O)O)[C@@H](C)OP(=O)(O)O)C(N)=O", "note": "[Suc-Ala-pThr-Pro-Ala-NH2] (Suc-A[pT]PA-NH2)", "values": [{"measurement": "isomerase activity on the peptide", "setting": "TbPar42-PPIase", "value": "no isomerase activity could be detected"}, {"measurement": "cis/trans exchange peaks of the peptide (EXSY)", "setting": "hPin1", "value": "exchange peaks generated exclusively in B"}, {"measurement": "Kd", "setting": "TbPar42-PPIase (264-383)", "value": "~10", "unit": "mM"}, {"measurement": "Kd", "setting": "TbPar42 NterFHA (1-177)", "value": "~4", "unit": "mM"}]}]}
